# Results from patent US5565475A, “Method of treating urinary bladder dysfunctions with 3-tetrahydropyridine derivatives” (priority 1994, dated 1996).
# Structures can show the parent of a compound that is named as a salt.
# Assays:
# muscarinic receptors = experiment: Inhibition of 3H-oxotremorine-M binding to muscarinic receptors (rat cerebral cortical membranes); parameters: species or system rat (male Sprague-Dawley); conditions: 3 nM 3H-oxotremorine-M, pH 7.4, 15 minutes at 25° C., read-out: Inhibition of 3H-Oxo
# Description: The affinity of the compounds for the muscarinic receptors was determined using the non-selective agonist ligand, ^3 H-oxotremorine-M. Birdsdall N. J. M., Hulme E. C., and Burgen A. S. V., "The Character of Muscarinic Receptors in Different Regions of the Rat Brain", 207 Proc. Roy. Soc. 1 (London, Series B, 1980). Each compound was tested to determine the affinity of the compound for the muscarinic receptors using the following procedure.
# For in vitro binding, male Sprague-Dawley (Harlan Sprague-Dawley, Indianapolis, IN) rats weighing from about 100 to about 150 grams each were sacrificed by decapitation. The brains were quickly removed and the cerebral cortex were dissected from the brain. The cerebral cortex tissue was homogenized in 10 volumes of 0.32M sucrose and homogenized for about 10 minutes at about 1000×g. The supernatant was centrifuged at about 12,000×g for about 10 minutes and the resulting pellet was resuspended in 20 mM tris-Cl, pH 7.4. The resuspended pellet was centrifuged again for about 10 minutes at about 50,000×g. The resulting homogenate was preincubated for about 10 minutes at about 25° C. and centrifuged again for about 10 minutes at about 50,000×g. The pellet was resuspended at 1 gram of pellet per 3 ml of buffer and frozen at about -80° C. until used.
# The aforementioned homogenates mixture was incubated for about 15 minutes at about 25° C. and then the homogenates were filtered through glass filters (Whatman, GF/C) with vacuum. The filters were washed 3 times with about 2 ml of cold tris-Cl buffer, and placed in scintillation vials containing about 10 ml of scintillation fluid (Ready Protein+, Beckman, Fullerton, Calif.). Radioactivity trapped on the filters was determined by liquid scintillation spectrometry. Nonspecific binding was determined using 1 μM atropine.
# vesico-anal reflex = experiment: Acetic acid-induced vesico-anal reflex (model of visceral nociception); format: in vivo, rat (female Sprague-Dawley); conditions: for duration of the increase in vesico-anal reflex activity / increases in vesico-anal reflex activity when administered alone: atropine 30 μg/kg-1 mg/kg, oxybutynin 1-3 mg/kg, administered alone
# Description: The model of visceral nociception that was used in the testing of the compounds according to the method of this invention is the acetic acid-induced vesico-anal reflex. This model utilizes infusion of a dilute acetic acid solution into the urinary bladder as a nociceptive stimulus and records increases in electromyographic (EMG) activity from the anal sphincter as the primary measured response. Anal sphincter EMG activity is composed of 2 components, 1) a small, long duration action potential (ca. 50 msec) that is sensitive to muscarinic antagonists and 2) a larger, short duration action potential (ca. 2 msec) that is sensitive to neuromuscular blocking agents (i.e. mediated by nicotinic receptors). These components represent rectal longitudinal smooth muscle activity and external anal sphincter striated muscle activity, respectively, and have been described in detail in a separate publication (Muhlhauser reference). It is the striated anal sphincter muscle activity that 1) is associated with bladder activity, 2) is increased by acetic acid infusion into the bladder, and 3) represents the vesico-anal reflex. The acetic acid-inducedincrease in vesico-anal reflex activity is maintained for over 2 hours in 95% of the animals.
# In the acetic acid-induced vesico-anal reflex model, bladders of urethane-anesthetized rats were cannulated through the dome for continuous-infusion cystometrogram recordings. EMG electrodes were inserted into the anus and the peri-urethral musculature for recording anal and urethral sphincteric activity, respectively. Infusion of 0.5% acetic acid into the bladder or urethra produced modest increases in bladder contractile activity and urethral sphincter activity and pronounced increases in anal sphincter activity (i.e. an increase in the vesico-anal reflex). […] These studies indicate that a tonically-active, endogenous, cholinergic muscarinic system plays a role in the suppression of visceral nociception arising from the lower urinary tract.
# Female Sprague-Dawley rats (200-300 g) were anesthetized with 1.4 g/kg urethane (0.7 g administered i.p. and 0.7 g administered s.c.), which was supplemented with 1% isoflurane during surgery. The urinary bladder was exposed through an abdominal incision and cannulated with PE60 tubing attached to a 22 gauge needle that was inserted through the dome of the bladder. A purse-string suture (5-0 silk) through the bladder held the needle in place. The cannula was connected to an infusion pump (Harvard Apparatus, ratus, Natick Mass.) and a pressure transducer (Statham Gould, Cleveland, Ohio) through a 3 way stopcock to allow bladder filling and pressure measurement, respectively. The abdominal incision was covered with plastic wrap. A small incision was made in the perineum to allow placement of EMG electrodes into the periurethral musculature. EMG electrodes were also placed into the muscular tissue of the anus. EMG electrodes were connected to preamplifiers (Grass P511, Quincey, Mass.) with low and high pass filters set at 10 and 3000 HZ. […] A catheter inserted into the carotid artery was connected to a pressure transducer (Statham Gould, Cleveland, Ohio) to record arterial pressure, which was used to trigger a heart rate meter (Biotach, Gould, Cleveland, Ohio). A catheter was inserted into the trachea to allow for artificial respiration and monitoring of expired CO2 (Sensor Medics, Anaheim, Calif.). EMG potentials, rate meter output, bladder and arterial pressure, heart rate, and expired CO2 measurements were recorded on a physiograph (Gould, TA4000, Cleveland, Ohio) and stored on an 8-channel digital audio tape recorder (SONY PC-108M, Tokyo, Japan).
# After establishing control levels of anal and urethral activity, compounds were administered intravenously. […]
smiles,measurement,setting,value
"COc1nsnc1C1=CCCN(C)C1 [Compound 1, 1,2,5,6-Tetrahydro-3-(3-methoxy-1,2,5-thiadiazol-4-yl)-1-methylpyridine oxalate]",IC50,muscarinic receptors,22 nM
"CCCCOc1nsnc1C1=CCCN(C)C1 [Compound 4, 3-(3-Butoxy-1,2,5-thiadiazol-4-yl)-1,2,5,6-tetrahydro-1-methylpyridine oxalate]",IC50,muscarinic receptors,2 nM
C[N+]1(C)[C@@H]2C[C@@H](OC(=O)[C@H](CO)c3ccccc3)C[C@H]1[C@@H]1O[C@@H]12 [Scopolamine methyl bromide],blocking of the cholinergic agonist-mediated inhibition of the vesico-anal reflex,vesico-anal reflex; 1-30 ug/kg,ineffective at blocking the cholinergic agonist-mediated inhibition of the vesico-anal reflex
"CCCOc1nsnc1C1=CCCN(C)C1 [Compound 3, 1,2,5,6-Tetrahydro-1-methyl-3-(3-propoxy-1,2,5-thiadiazol-4-yl)pyridine oxalate]",IC50,muscarinic receptors,1.6 nM
"CCOc1nsnc1C1=CCCN(C)C1 [Compound 2, 3-(3-Ethoxy-1,2,5-thiadiazol-4-yl)-1,2,5,6-tetrahydro-1-methylpyridine oxalate]",IC50,muscarinic receptors,5.7 nM
"CCCSc1nsnc1C1=CCCN(C)C1 [Compound 47, 3-(3-Propylthio-1,2,5-thiadiazol-4-yl)-1,2,5,6-tetrahydro-1-methylpyridine oxalate]",IC50,muscarinic receptors,0.9 nM
O=C1CCCN1CC#CCN1CCCC1 [Oxotremorine],reversal of the inhibition of vesico-anal reflex activity by atropine,vesico-anal reflex; atropine 0.3-1 mg/kg,reversed by atropine
same,vesico-anal reflex activity (inhibited to % of control),"vesico-anal reflex; oxotremorine 1-30 μg/kg iv, test compounds 0.01-1.0 mg/kg iv",10 % of control
same,inhibition of vesico-anal reflex activity,"vesico-anal reflex; oxotremorine 1-30 μg/kg iv, test compounds 0.01-1.0 mg/kg iv, urethane-anesthetized rats, 0.5% acetic acid",dose-dependent inhibition of vesico-anal reflex activity
CNC(=O)Oc1ccc2c(c1)[C@]1(C)CCN(C)[C@@H]1N2C [physostigmine],suppression of the VA reflex by cholinesterase inhibitors,"vesico-anal reflex; rat, in vivo","suppressed the VA reflex in a dose-dependent, atropine-sensitive manner"
CN1[C@@H]2CC[C@H]1C[C@@H](OC(=O)C(CO)c1ccccc1)C2 (stereo partly drawn) [atropine],duration of the increase in vesico-anal reflex activity,vesico-anal reflex,15 min
same,increases in vesico-anal reflex activity when administered alone,vesico-anal reflex,"robust, but transient"
"C=CCCCCOc1nsnc1C1=CCCN(C)C1 [Compound 33, 3-(3-(5-Hexenyloxy)-1,2,5-thiadiazol-4-yl)-1,2,5,6-tetrahydro-1-methylpyridine oxalate]",IC50,muscarinic receptors,2.7 nM
CCN(CC)CC#CCOC(=O)C(O)(c1ccccc1)C1CCCCC1 (stereo not drawn) [oxybutynin],duration of the increase in vesico-anal reflex activity,vesico-anal reflex,15 min
same,increases in vesico-anal reflex activity when administered alone,vesico-anal reflex,"robust, but transient"
